Source: PubChem BioAssay (NCI)
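Briefly, cells in 96-well plates were exposed to five compound concentrations for 48 h, and endpoints were estimated by linear interpolation. At the GI50, growth is halved. TGI is the concentration that stops growth completely.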

Tests used:
Assay in all cases: NCI-60 cell line screen, 48 h
SW-620 colon = test system: SW-620 colon
ACHN renal = test system: ACHN renal
A549 NSCLC = test system: A549 NSCLC
UO-31 renal = test system: UO-31 renal
OVCAR-8 ovarian = test system: OVCAR-8 ovarian
SF-539 CNS = test system: SF-539 CNS
M14 melanoma = test system: M14 melanoma
HCC-2998 colon = test system: HCC-2998 colon
UACC-62 melanoma = test system: UACC-62 melanoma
OVCAR-3 ovarian = test system: OVCAR-3 ovarian

Compound | TGI (SW-620 colon) | TGI (ACHN renal) | TGI (A549 NSCLC) | TGI (UO-31 renal) | TGI (OVCAR-8 ovarian) | TGI (SF-539 CNS) | TGI (M14 melanoma) | TGI (HCC-2998 colon) | TGI (UACC-62 melanoma) | TGI (OVCAR-3 ovarian) | GI50 (UACC-62 melanoma) | GI50 (SW-620 colon) | GI50 (ACHN renal) | GI50 (A549 NSCLC) | GI50 (UO-31 renal) | GI50 (OVCAR-3 ovarian) | GI50 (OVCAR-8 ovarian) | GI50 (SF-539 CNS) | GI50 (M14 melanoma) | GI50 (HCC-2998 colon)
Oc1ccc(Br)cc1C=Nc1ccc(N=Cc2cc(Br)ccc2O)cc1 | > 100 µM | > 100 µM | > 100 µM | > 100 µM | > 100 µM | > 100 µM | > 100 µM | > 100 µM | – | – | – | – | – | – | – | – | – | – | – | –
COc1cc(C(=O)N2CCc3c([nH]c4c([N+](=O)[O-])c(OC)ccc34)C2C)cc(OC)c1OC (stereo unspecified) | > 100 µM | > 100 µM | > 100 µM | > 100 µM | > 100 µM | > 100 µM | > 100 µM | > 100 µM | 39.5 µM | > 100 µM | – | – | – | – | – | – | – | – | – | –
O=C(NO)c1ccc(CN(c2cnccn2)c2cnccn2)cc1 | 33.7 µM | 27.4 µM | 36.5 µM | 26.4 µM | 17.2 µM | 34.6 µM | 28.3 µM | 26.8 µM | 28.5 µM | 30 µM | 6.71 µM | 12.5 µM | 12.9 µM | 13.9 µM | 12.9 µM | 11.7 µM | 3.75 µM | 14.1 µM | 11.1 µM | 13.2 µM
CC(=O)OCCOCNC(=S)N/N=C/c1ccc(Br)s1 | > 100 µM | > 100 µM | > 100 µM | > 100 µM | > 100 µM | > 100 µM | > 100 µM | > 100 µM | > 100 µM | > 100 µM | – | – | – | – | – | – | – | – | – | –
COc1ccc(Cc2cnc(NC(=O)c3ccc4c(c3)OCCO4)s2)cc1 | > 100 µM | > 100 µM | > 100 µM | > 100 µM | > 100 µM | 0.714 µM | 22.4 µM | > 69.6 µM | 40.6 µM | 0.0658 µM | 0.0292 µM | 0.0338 µM | 0.0553 µM | 0.044 µM | 1.2 µM | 0.0221 µM | 0.0426 µM | 0.0257 µM | 0.0228 µM | 0.038 µM
CCCCCCCCCCN1CCC(N2CCCCC2)CC1 | 3.97 µM | 13.7 µM | 12.1 µM | 2.8 µM | 14 µM | 2.88 µM | – | 5.9 µM | 3.4 µM | 16.6 µM | 1.76 µM | 1.92 µM | 4.31 µM | 3.74 µM | 1 µM | 4.64 µM | 3.81 µM | 1.48 µM | 1.72 µM | 2.21 µM
COc1ccc(/C=C(/c2ccccc2)[N+](=O)[O-])cc1 | 3.18 µM | 2.9 µM | 5.12 µM | 2.35 µM | 6.3 µM | 3.18 µM | 2.85 µM | 3.22 µM | 3.17 µM | 2.69 µM | 1.5 µM | 1.34 µM | 1.55 µM | 2.13 µM | 1.13 µM | 1.36 µM | 2.08 µM | 1.77 µM | 1.42 µM | 1.75 µM
CC1=C(C(=O)NNS(=O)(=O)c2ccc(C)cc2)CC(C(=O)NNS(=O)(=O)c2ccc(C)cc2)=C(C)N1 | > 100 µM | > 100 µM | > 100 µM | > 100 µM | > 100 µM | > 100 µM | > 100 µM | > 100 µM | 47.2 µM | > 100 µM | – | – | – | – | – | – | – | – | – | –
Cc1cccc(N=C2NC(=O)C(CC(=O)Nc3cccc(C)c3C)S2)c1 (stereo unspecified) | > 100 µM | > 100 µM | > 100 µM | > 100 µM | > 100 µM | – | > 100 µM | > 100 µM | > 100 µM | > 100 µM | – | – | – | – | – | – | – | – | – | –
COc1ccc2c3c(Nc4ccc(/C(C)=N/O)cc4)[nH]c4ccccc4c-3c(N=O)c2c1 | 2.85 µM | 2.54 µM | 6.08 µM | 35.5 µM | 20.2 µM | 34.6 µM | 5.64 µM | 3.27 µM | 23.7 µM | – | 7.91 µM | 1.36 µM | 0.568 µM | 1.45 µM | 18.5 µM | – | 3.55 µM | 17.3 µM | 2.44 µM | 1.78 µM
Cc1ncc([N+](=O)[O-])n1CCNS(=O)(=O)CCCn1ncnc1[N+](=O)[O-] | > 100 µM | > 100 µM | > 100 µM | > 100 µM | > 100 µM | > 100 µM | > 100 µM | – | > 100 µM | > 100 µM | – | – | – | – | – | – | – | – | – | –
O=[N+]([O-])c1ccc(CSCc2ccc(Cl)cc2)cc1 | > 100 µM | > 100 µM | > 100 µM | > 100 µM | > 100 µM | > 100 µM | > 100 µM | – | > 100 µM | > 100 µM | – | – | – | – | – | – | – | – | – | –
Clc1ccc(N=CNc2ccc(-c3nc4ccccc4o3)cc2)cc1 | 8.16 µM | > 100 µM | > 100 µM | > 100 µM | 40.9 µM | 45.7 µM | > 100 µM | – | > 100 µM | 25.3 µM | 25.3 µM | 2.9 µM | 24.4 µM | 38 µM | 40.6 µM | 11.2 µM | 21.1 µM | 14.8 µM | 56.4 µM | –
O=C(O)CN(c1ccccc1)S(=O)(=O)c1ccc([N+](=O)[O-])cc1 | > 100 µM | > 100 µM | > 100 µM | > 100 µM | > 100 µM | > 100 µM | > 100 µM | – | > 100 µM | > 100 µM | – | – | – | – | – | – | – | – | – | –
Cc1cccc(C(C)C)c1NC(=O)C(=O)C(C(=O)c1ccccc1F)C1OC(=O)c2ccccc21 (stereo unspecified) | 58.9 µM | > 100 µM | > 100 µM | 38.3 µM | 59.7 µM | – | 38.5 µM | 26.6 µM | 22.4 µM | 38 µM | – | – | – | – | – | – | – | – | – | –
COc1cc(C2C(C(=O)Nc3cc(F)c(F)cc3F)=C(C)NC(C)=C2C(=O)Nc2cc(F)c(F)cc2F)ccc1O | > 100 µM | 65.3 µM | 95.8 µM | 35.5 µM | 96.7 µM | 59.6 µM | > 100 µM | 33.4 µM | – | 38 µM | – | – | – | – | – | – | – | – | – | –
CC(=O)OC1C2CCC1C1C2C2(Cl)C(Cl)=C(Cl)C1(Cl)C2(Cl)Cl (stereo unspecified) | 28.4 µM | 25.9 µM | 25.9 µM | 25.2 µM | 29.6 µM | 30.7 µM | 25.3 µM | – | 27 µM | 24 µM | – | – | – | – | – | – | – | – | – | –
